Measured values as given in US9902728B2, “Pyrrolo and pyrazolopyrimidines as ubiquitin-specific protease 7 inhibitors” (Forma Therapeutics, Inc., priority 2014, dated 2018).

What follows are compounds tested against T1, USP7 (Homo sapiens, UniProt Q93009) (assay: USP7 Assay A (Ubitquin-Rhodamine 110 Assay)). Conditions: USP7 activity in USP7 assay A and B (table does not say which assay per compound); read-out: USP7_IC50.
T1 construct: USP7, construct USP7 (208-1102) 6*His, Viva Biotech; 6xHis (C); purchased Viva Biotech
T1 sequence (Q93009 208-1102): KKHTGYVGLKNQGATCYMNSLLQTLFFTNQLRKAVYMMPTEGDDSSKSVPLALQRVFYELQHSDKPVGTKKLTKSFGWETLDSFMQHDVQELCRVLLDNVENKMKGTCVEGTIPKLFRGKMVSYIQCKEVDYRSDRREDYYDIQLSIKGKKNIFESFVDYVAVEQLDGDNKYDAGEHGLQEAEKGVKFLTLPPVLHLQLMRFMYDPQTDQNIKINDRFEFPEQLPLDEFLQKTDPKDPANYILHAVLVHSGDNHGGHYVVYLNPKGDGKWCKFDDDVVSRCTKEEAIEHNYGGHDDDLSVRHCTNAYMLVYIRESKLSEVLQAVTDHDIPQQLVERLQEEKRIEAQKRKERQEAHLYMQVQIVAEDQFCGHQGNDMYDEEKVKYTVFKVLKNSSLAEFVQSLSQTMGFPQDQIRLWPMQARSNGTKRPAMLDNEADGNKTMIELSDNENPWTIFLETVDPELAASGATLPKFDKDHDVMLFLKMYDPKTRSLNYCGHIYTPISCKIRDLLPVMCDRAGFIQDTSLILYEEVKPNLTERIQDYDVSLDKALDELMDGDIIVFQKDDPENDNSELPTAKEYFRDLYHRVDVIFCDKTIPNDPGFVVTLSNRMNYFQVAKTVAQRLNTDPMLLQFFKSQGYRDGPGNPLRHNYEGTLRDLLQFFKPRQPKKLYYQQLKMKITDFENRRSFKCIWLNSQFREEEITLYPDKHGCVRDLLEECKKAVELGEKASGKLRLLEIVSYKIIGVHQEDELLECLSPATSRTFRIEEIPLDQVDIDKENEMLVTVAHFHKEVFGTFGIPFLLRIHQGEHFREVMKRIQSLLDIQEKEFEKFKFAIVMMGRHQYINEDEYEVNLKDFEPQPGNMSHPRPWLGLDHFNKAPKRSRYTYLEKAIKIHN
Assay type: biochemical
How it was run: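 Enzyme and compound sat together for 30 min before Ub-Rh110 was added, in buffer of 20 mM Tris-HCl (pH 8.0), 1 mM GSH, 0.03% BGG and 0.01% Triton X-100.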
`CC(=O)NC1CCC(C(=O)N2CCC(O)(Cn3cnc4c(cnn4-c4ccc(F)cc4)c3=O)CC2)CC1` (stereo not shown) [Compound I-924] was tested, and the IC50 was 1 to 10 µM. `O=C(C1CCC(OC2CCOCC2)CC1)N1CCC(O)(Cn2cnc3c(cnn3-c3ccc(F)cc3)c2=O)CC1` (stereo not shown) [Compound I-925] was tested, and the IC50 was 1 to 10 µM. `O=C(C1CCC(OC2CCOCC2)CC1)N1CCC(O)(Cn2cnc3c(cnn3-c3ccc(F)cc3)c2=O)CC1` (stereo not shown) [Compound I-926] gave an IC50 of 0.2 to 1 µM. For `CN1CCN(c2cnn(-c3ccc(-n4ncc5c(=O)n(CC6(O)CCN(C(=O)C7CC7)CC6)cnc54)cc3)c2)CC1` [Compound I-975, 5-[(1-cyclopropanecarbonyl-4-hydroxypiperidin-4-yl)methyl]-1-{4-[4-(4-methylpiperazin-1-yl)-1H-pyrazol-1-yl]phenyl}-1H,4H,5H-pyrazolo[3,4-d]pyrimidin-4-one], the IC50 was 0.2 to 1 µM. `O=C(c1ccc(F)cc1)N1CCC(O)(Cn2cnc3c(cnn3-c3ccc(-n4cc5c(n4)CCOC5)cc3)c2=O)CC1` [Compound I-976] gave an IC50 of 1 to 10 µM. `O=C(C1CC1)N1CCC(O)(Cn2cnc3c(cnn3-c3ccc(-n4cc(OCCO)cn4)cc3)c2=O)CC1` [Compound I-977] was tested, and the IC50 was 1 to 10 µM. With `O=C(c1cnc(C2CC2)o1)N1CCC(O)(Cn2cnc3c(cnn3-c3ccc(OCC4(F)CCC4)cc3)c2=O)CC1` [Compound I-981] the IC50 was under 0.2 µM. For `Cc1nc(-c2ccc(-n3ncc4c(=O)n(CC5(O)CCN(C(=O)c6ccc(F)cc6)CC5)cnc43)cc2)c[nH]1` [Compound I-983], the IC50 was 1 to 10 µM. `Cc1cnc(-c2ccc(-n3ncc4c(=O)n(CC5(O)CCN(C(=O)c6ccc(F)cc6)CC5)cnc43)cc2)n1C` [Compound I-984] gave an IC50 of 1 to 10 µM. With `O=C(c1cnc(C2CC2)o1)N1CCC(O)(Cn2cnc3c(cnn3-c3ccc(-c4cccnc4)cc3)c2=O)CC1` [Compound I-985] the IC50 was 0.2 to 1 µM. `Cc1cn(-c2ccc(-n3ncc4c(=O)n(CC5(O)CCN(C(=O)c6ccc(F)cc6)CC5)cnc43)cc2)cn1` [Compound I-987] gave an IC50 of 1 to 10 µM. With `Cc1nccn1-c1ccc(-n2ncc3c(=O)n(CC4(O)CCN(C(=O)c5ccc(F)cc5)CC4)cnc32)cc1` [Compound I-988] the IC50 was 1 to 10 µM. Work on `CN1Cc2cnn(-c3ccc(C(=O)N4CCC(O)(Cn5cnc6c(cnn6-c6ccc(F)cc6)c5=O)CC4)cc3)c2C1` [Compound I-1000] yielded an IC50 of 1 to 10 µM. Work on `CN1Cc2cn(-c3ccc(C(=O)N4CCC(O)(Cn5cnc6c(cnn6-c6ccc(F)cc6)c5=O)CC4)cc3)nc2C1` [Compound I-1001] yielded an IC50 of 1 to 10 µM. In the case of `NC(=O)Cn1cc(-c2ccc(C(=O)N3CCC(O)(Cn4cnc5c(cnn5-c5ccc(F)cc5)c4=O)CC3)cc2)cn1` [Compound I-1002, 2-(4-(4-(4-((1-(4-fluorophenyl)-4-oxo-1H-pyrazolo[3,4-d]pyrimidin-5(4H)-yl)methyl)-4-hydroxypiperidine-1-carbonyl)phenyl)-1H-pyrazol-1-yl)acetamide], the IC50 is reported as 1 to 10 µM. Compound `C=CC(=O)N1[C@@H](C(=O)N2CCC(O)(Cn3cnc4c(cnn4-c4ccc(F)cc4)c3=O)CC2)C[C@@H]1C` [Compound I-1003] has an IC50 of 1 to 10 µM. Work on `O=C(c1ccc(N2CC3CC2CN3)cc1)N1CCC(O)(Cn2cnc3c(cnn3-c3ccc(F)cc3)c2=O)CC1` (stereo not shown) [Compound I-1005] yielded an IC50 of 1 to 10 µM. In the case of `O=C(c1ccc(-c2cnn(CCO)c2)cc1)N1CCC(O)(Cn2cnc3c(cnn3-c3ccc(F)cc3)c2=O)CC1` [Compound I-1006], the IC50 is reported as 1 to 10 µM. Work on `O=C(C1CC1)N1CCC(O)(Cn2cnc3c(ccn3-c3cccc(CN4CCCCC4)c3)c2=O)CC1` [Compound I-1009] yielded an IC50 of 1 to 10 µM. With `O=C(C1CC1)N1CCC(O)(Cn2cnc3c(ccn3-c3ccc(F)c(CN4CCCCC4)c3)c2=O)CC1` [Compound I-1010] the IC50 was 1 to 10 µM. In the case of `N#Cc1ccc(OC2CCC(C(=O)N3CCC(O)(Cn4cnc5c(cnn5-c5ccc(F)cc5)c4=O)CC3)CC2)nc1` (stereo not shown) [Compound I-1014], the IC50 is reported as 0.2 to 1 µM. `Cc1cncc(OC2CCC(C(=O)N3CCC(O)(Cn4cnc5c(cnn5-c5ccc(F)cc5)c4=O)CC3)CC2)n1` (stereo not shown) [Compound I-1015] was tested, and the IC50 was 0.2 to 1 µM. `Cc1nccc(OC2CCC(C(=O)N3CCC(O)(Cn4cnc5c(cnn5-c5ccc(F)cc5)c4=O)CC3)CC2)n1` (stereo not shown) [Compound I-1016] gave an IC50 of 0.2 to 1 µM. `O=C(C1CCC(Oc2cccnc2F)CC1)N1CCC(O)(Cn2cnc3c(cnn3-c3ccccc3)c2=O)CC1` (stereo not shown) [Compound I-1017] showed an IC50 of 0.2 to 1 µM. In the case of `O=C(C1CCC(Oc2cccc(N3CCC3)n2)CC1)N1CCC(O)(Cn2cnc3c(cnn3-c3ccc(F)cc3)c2=O)CC1` (stereo not shown) [Compound I-1018], the IC50 is reported as under 0.2 µM. `COc1ccc(OC2CCC(C(=O)N3CCC(O)(Cn4cnc5c(cnn5-c5ccc(F)cc5)c4=O)CC3)CC2)nc1` (stereo not shown) [Compound I-1019] showed an IC50 of 0.2 to 1 µM. In the case of `COc1ccc(OC2CCC(C(=O)N3CCC(O)(Cn4cnc5c(cnn5-c5ccccc5)c4=O)CC3)CC2)nc1` (stereo not shown) [Compound I-1020], the IC50 is reported as 0.2 to 1 µM. For `O=C(C1CCC(Oc2cnccn2)CC1)N1CCC(O)(Cn2cnc3c(cnn3-c3ccc(F)cc3)c2=O)CC1` (stereo not shown) [Compound I-1021], the IC50 was 0.2 to 1 µM. With `Cc1ncc(OC2CCC(C(=O)N3CCC(O)(Cn4cnc5c(cnn5-c5ccc(F)cc5)c4=O)CC3)CC2)cn1` (stereo not shown) [Compound I-1022] the IC50 was 0.2 to 1 µM. For `O=C(C1CCC(Nc2cccc(F)n2)CC1)N1CCC(O)(Cn2cnc3c(cnn3-c3ccc(F)cc3)c2=O)CC1` (stereo not shown) [Compound I-1023], the IC50 was under 0.2 µM. For `O=C(C1CCC(Nc2cccc(F)n2)CC1)N1CCC(O)(Cn2cnc3c(cnn3-c3ccc(F)cc3)c2=O)CC1` (stereo not shown) [Compound I-1024], the IC50 was under 0.2 µM. `CC(c1ccccc1)c1nn(C)cc1C(=O)N1CCC(O)(Cn2cnc3c(cnn3-c3ccc(F)cc3)c2=O)CC1` (stereo not shown) [Compound I-1025] showed an IC50 of 0.2 to 1 µM. `C[C@H](CC(=O)N1CCC(O)(Cn2cnc3c(cnn3-c3ccc(F)cc3)c2=O)CC1)n1ccc(F)n1` [Compound I-1028] showed an IC50 of under 0.2 µM. `C[C@@H](CC(=O)N1CCC(O)(Cn2cnc3c(cnn3-c3ccc(F)cc3)c2=O)CC1)n1ccc(F)n1` [Compound I-1029] gave an IC50 of 1 to 10 µM. With `O=C(C1CC(Nc2cccnc2)C1)N1CCC(O)(Cn2cnc3c(cnn3-c3ccc(F)cc3)c2=O)CC1` (stereo not shown) [Compound I-1030] the IC50 was 0.2 to 1 µM. `O=C(C1CC(Nc2cccnc2)C1)N1CCC(O)(Cn2cnc3c(cnn3-c3ccc(F)cc3)c2=O)CC1` (stereo not shown) [Compound I-1031] showed an IC50 of 0.2 to 1 µM. Compound `O=C(C1CC(Nc2ccc(F)cn2)C1)N1CCC(O)(Cn2cnc3c(cnn3-c3ccc(F)cc3)c2=O)CC1` (stereo not shown) [Compound I-1032] has an IC50 of 0.2 to 1 µM. With `O=C(C1CC(Nc2ccc(F)cn2)C1)N1CCC(O)(Cn2cnc3c(cnn3-c3ccc(F)cc3)c2=O)CC1` (stereo not shown) [Compound I-1033] the IC50 was 1 to 10 µM. For `O=C(C1CC(Nc2ccccn2)C1)N1CCC(O)(Cn2cnc3c(cnn3-c3ccc(F)cc3)c2=O)CC1` (stereo not shown) [Compound I-1034], the IC50 was 1 to 10 µM. `O=C(C1CC(Nc2ccccn2)C1)N1CCC(O)(Cn2cnc3c(cnn3-c3ccc(F)cc3)c2=O)CC1` (stereo not shown) [Compound I-1035] was tested, and the IC50 was 0.2 to 1 µM. `O=C(C[C@H](C(F)F)n1ccc(F)n1)N1CCC(O)(Cn2cnc3c(cnn3-c3ccc(C(F)(F)F)cc3)c2=O)CC1` [Compound I-1036] was tested, and the IC50 was under 0.2 µM. Compound `O=C(C[C@@H](C(F)F)n1ccc(F)n1)N1CCC(O)(Cn2cnc3c(cnn3-c3ccc(C(F)(F)F)cc3)c2=O)CC1` [Compound I-1037] has an IC50 of 1 to 10 µM. For `O=C(C1CCC(Oc2ccccn2)CC1)N1CCC(O)(Cn2cnc3c(ccn3-c3ccc(F)cc3)c2=O)CC1` (stereo not shown) [Compound I-1038], the IC50 was under 0.2 µM. `O=c1c2cnn(-c3ccccc3)c2ncn1CC1(O)CCN(C(=O)[C@H]2CC[C@H](Nc3cccnc3F)CC2)CC1` [Compound I-1039b, Anti-5-((1-(4-((2-fluoropyridin-3-yl)amino)cyclohexane-1-carbonyl)-4-hydroxypiperidin-4-yl)methyl)-1-phenyl-1,5-dihydro-4H-pyrazolo[3,4-d]pyrimidin-4-one] gave an IC50 of under 0.2 µM. For `Cn1ccc(NC2CCC(C(=O)N3CCC(O)(Cn4cnc5c(ccn5-c5ccc(F)cc5)c4=O)CC3)CC2)n1` (stereo not shown) [Compound I-1040], the IC50 was 1 to 10 µM. With `Cn1ccc(NC2CCC(C(=O)N3CCC(O)(Cn4cnc5c(ccn5-c5ccc(F)cc5)c4=O)CC3)CC2)n1` (stereo not shown) [Compound I-1041] the IC50 was 0.2 to 1 µM.

Same assay, conditions: USP7 assay A and B (table does not say which assay per compound); read-out: USP7_IC50
Work on `C#CC(=O)NC1CC(C(=O)N2CCC(O)(Cn3cnc4c(cnn4-c4ccc(F)cc4)c3=O)CC2)C1` (stereo not shown) [Compound I-950] yielded an IC50 of 1 to 10 µM. `C#CC(=O)N[C@@H]1CC[C@@H]1C(=O)N1CCC(O)(Cn2cnc3c(cnn3-c3ccc(F)cc3)c2=O)CC1` [Compound I-952] was tested, and the IC50 was 0.2 to 1 µM. `Nc1cccc(-n2ncc3c(=O)n(CC4(O)CCN(C(=O)C5CC5)CC4)cnc32)c1` [Compound I-964] was tested, and the IC50 was 1 to 10 µM. In the case of `Nc1ccc(-n2ncc3c(=O)n(CC4(O)CCN(C(=O)C5CC5)CC4)cnc32)cc1` [Compound I-965], the IC50 is reported as 1 to 10 µM. `CN(C)C(=O)N1CCC(O)(Cn2cnc3c(cnn3-c3ccc(N4CCNCC4)cc3)c2=O)CC1` [Compound I-967] was tested, and the IC50 was 1 to 10 µM. `CN1CCN(c2ccc(-n3ncc4c(=O)n(CC5(O)CCN(C(=O)c6ccccc6)CC5)cnc43)cc2F)CC1` [Compound I-970] showed an IC50 of 1 to 10 µM. For `CO[C@]1(C)CCN(c2cc(-n3ncc4c(=O)n(CC5(O)CCN(C(=O)C6CC6)CC5)cnc43)ccc2F)C1` [Compound I-972], the IC50 was 1 to 10 µM. `CN(C)C(=O)N1CCC(O)(Cn2cnc3c(cnn3-c3cccc(N4C[C@@H](O)[C@H](F)C4)c3)c2=O)CC1` [Compound I-974] was tested, and the IC50 was 1 to 10 µM. With `O=C(c1ccc(OC(F)F)cc1)N1CCC(O)(Cn2cnc3c(cnn3-c3cccc(CO)c3)c2=O)CC1` [Compound I-989] the IC50 was 1 to 10 µM. Compound `CC(C)N1CCC(c2ccc(-n3ncc4c(=O)n(CC5(O)CCN(C(=O)N(C)C)CC5)cnc43)cc2)CC1` [Compound I-992] has an IC50 of 1 to 10 µM. `O=C(c1ccc(F)cc1)N1CCC(O)(Cn2cnc3c(cnn3-c3cccc(C4CCNCC4)c3)c2=O)CC1` [Compound I-993] gave an IC50 of 1 to 10 µM. In the case of `CN1CCCCC1CCc1ccc(-n2ncc3c(=O)n(CC4(O)CCN(C(=O)c5ccc(F)cc5)CC4)cnc32)cc1` (stereo not shown) [Compound I-1007, 5-((1-(4-fluorobenzoyl)-4-hydroxypiperidin-4-yl)methyl)-1-(4-(2-(1-methylpiperidin-2-yl)ethyl)phenyl)-1H-pyrazolo[3,4-d]pyrimidin-4(5H)-one], the IC50 is reported as 1 to 10 µM.
